Values of other authors as cited in patent publication EP2698169A1, “A contrast agent-binding polypeptide and use thereof” (Universität Duisburg-Essen, priority 2012, dated 2014).

Conditions: literature [26]; conventional small molecular contrast agents

Relaxivities | Compound
below 10 s^-1mM^-1 | O=C([O-])CN1CCN(CC(=O)[O-])CCN(CC(=O)O)CCN(CC(=O)[O-])CC1.[Gd+3] [DOTA-Gd^3+]
below 10 s^-1mM^-1 | CNC[C@H](O)[C@@H](O)[C@H](O)[C@H](O)CO.CNC[C@H](O)[C@@H](O)[C@H](O)[C@H](O)CO.O=C([O-])CN(CCN(CC(=O)[O-])CC(=O)O)CCN(CC(=O)[O-])CC(=O)O.[Gd+3] [DTPA-Gd^3+, gadopentetic acid]
